Test results taken from US20060264497A1, “Diindolylmethane-based compositions and methods of use thereof for promoting oral mucosal and bone health” (priority 2005, published 2006).
Marks after values point to notes of the source that are not given here.

Experiments:
[1] = Case report: DIM treatment of a subject with rheumatoid arthritis and gingivitis; format: in vivo, human; settings: oral, subject with rheumatoid arthritis
Description: (§1) A person with a diagnosis of rheumatoid arthritis was referred for Diinolylmethane (DIM) treatment due to intolerance of oral Plaquenil®. […] They had diffuse small joint pain and elevated Rheumatoid Factor and Antinuclear Antigen serum titers. […] On probing, a total of 12 bleeding sites were documented. They began taking DIM (BioResponse-DIM 150, BioResponse, Boulder, Colo.) taking 50 mg of DIM twice daily.
as §1, with “daily. […] Subsequently they discontinued use of DIM and noted gradual return of painful swollen joints in their hands over 2 months.” for “daily.”

[2] = tested on: osteoclasts in metaphyseal bone; assay: Bone histomorphometry: osteoclast number after one year feeding of DIM or I3C; format: in vivo, rats; settings: 1 year; for Osteoclast Cell Number in Metaphyseal Bone: DIM 20 mg/kg/day (BioResponse-DIM), I3C 50 mg/kg/day in diet
Description: A one year study was conducted including evaluation of the impact of chronic feeding of DIM and I3C versus control diet in rats. The study used a dose of 20 mg/kg/day DIM, formulated for increased absorption (BioResponse-DIM, BioResponse, Boulder, Colo. [Example 1]), and 50 mg/kg/day Indole-3-Carbinol (I3C) (Sigma Chemical, St. Louis, Mo.). Bone histomorphometry was performed comparing metaphyseal bone in male and female animals using established techiques (Huffer W E, Ruegg P, Zhu J M, Lepoff R B., Semiautomated methods for cancellous bone histomorphometry using a general-purpose video image analysis system. J Microsc. 1994 January; 173 (Pt 1):53-66). Counts of osteoclast number, averaged for male and female groups are summarized in the following chart: […]

[3] = tested on: mouse osteoclast-like multinucleated cells (OCLs); assay: Pit formation assay on dentine slices; settings: 0.5-50 micromolar, 24 h and 48 h
Description: Osteoblasts will be obtained from the calvariae of newborn ddY mice and bone marrow cells will be obtained from the tibiae of male mice and be cocultured in aMEM (Life Technologies, Grand Island, N.Y.) containing 10% FBS, 1α,25-dihydroxyvitamin D3 (10^−8 M) (Wako Pure Chemical, Osaka, Japan) and PGE2 (10^−6 M) (Sigma) in 100-mm-diameter dishes coated with collagen gels (Nitta Gelatin, Osaka). OCLs will be formed within 6 days in culture and will be removed from the dishes by treating with 0.2% collagenase (Wako). The purity of OCLs in this fraction (crude OCL preparation) will be about 5%. To further purify the OCLs, the crude OCL preparation will be replated on culture dishes. After further culture for 8 h, osteoblasts will be removed with PBS containing 0.001% pronase E (Calbiochem, La Jolla, Calif.) and 0.02% EDTA.
OCLs preparations (15,000 cells/0.1 ml/well) will be seeded on dentine slices (4-mm diameter) which had been placed in 96-well plates. […] Pit formation by OCls will be determined after culture for 24 h and 48 h. […] The numbers of pits on the slices will be counted. To quantitate pit-forming activity of OCLs, the areas of resorption lacunae will also be measured with an image analysis system (LA-525; PIAS Co., Tokyo). The results will be expressed as the percentage of resorbed area with respect to the whole surface area of a dentine slice.

rat bone osteoclasts = settings: Gao and Yamaguchi 1999; cited from earlier work
[4] = cited from earlier work
[5] = Dissolution of DIM containing particles (release rate profile); format: physicochemical; settings: pH 6.8 phosphate buffer, 0.5% Tween 80, 37° C., 50 rpm
Description: Testing of Dissolution of DIM Containing Particles: In order to determine the release rate profiles of DIM from matrix, particle formulations, a test using pH 6.8 phosphate buffer system containing 0.5% Tween 80 was utilized. The procedure included dissolving an amount of spray dried particles containing a known amount of DIM in a standard dissolution apparatus with standard simulated saliva solution. For the following testing, 900 ml of stock pH 6.8 buffer solution was placed into a round bottom beaker in the dissolution test apparatus. To the solution, 5 g of Tween 80 (Sorbitan Monooleate) was added and mixed while bringing to a temperature of 37° C. To this, 600 mg of a test sample with known DIM content was added to the solution and stirred at 50 rpm. At timed intervals 3.0 ml aliquots of solution was removed and filtered through 0.22 um filter. The absorption of the sample was read at 283 nm on an […], blanking vs. pH 6.8 buffer containing 0.5% Tween 80. The percent released DIM compared to the 100% complete, theoretical level was calculated.

**Q.** For `CCN(CCO)CCCC(C)Nc1ccnc2cc(Cl)ccc12` (stereo not shown) [Plaquenil], which “Tolerance (adverse effect)” value [1] is on record?
**A.** unacceptable dizziness

**Q.** With `OCc1c[nH]c2ccccc12` [I3C, Indole-3-carbinol, reference compound] as the compound, how does the “Osteoclast Cell Number in Metaphyseal Bone” value (“Osteoclast Cell Number” for short) ([2]; female rats) read?
**A.** 18.3

**Q.** What about the “Osteoclast Cell Number” value ([2]; male rats) of the same compound?
**A.** 14.3*

**Q.** With `c1ccc2c(Cc3c[nH]c4ccccc34)c[nH]c2c1` [DIM, 3,3′-diindolylmethane] as the compound, how does the “Pit formation by OCLs (osteoclast function and survival)” value [3] read?
**A.** inhibition of pit formation

**Q.** And the “Osteoclast Cell Number” value ([2]; female rats)?
**A.** 14.3

**Q.** What about the “Osteoclast Cell Number” value ([2]; male rats) of the same compound?
**A.** 9.3*

**Q.** And the “Change in osteoclast number versus I3C treated and control animals” value ([2]; rats)?
**A.** reduction in osteoclast number

**Q.** For `O=c1c(-c2ccc(O)cc2)coc2cc(O)cc(O)c12` [Genistein, 4′,5,7-trihydroxyisoflavone], which “Potency of inhibiting the function of osteoclasts relative to daidzein” value (rat bone osteoclasts) is on record?
**A.** about 10 times

**Q.** And the Bone mineral density ([4]; 52 mg/day, year long clinical trial)?
**A.** failed to show any measurable improvement

**Q.** What about the “Serum and urinary indicators of ongoing bone loss” value ([4]; 90 mg/day, clinical trial) of the same compound?
**A.** failed to reduce

**Q.** With `CC(C)Oc1ccc2c(=O)c(-c3ccccc3)coc2c1` [Ipriflavone, 3-phenyl-7-propan-2-yloxy-chromen-4-one] as the compound, how does the “Measures of bone health” value ([4]; 600 mg/day, 3 years of treatment, controlled trial) read?
**A.** no significant improvement

**Q.** Which “Percent DIM Released from Particle” value ([5]; 0 minutes) does the source give for `c1ccc2c(Cc3c[nH]c4ccccc34)c[nH]c2c1` [Microcrystalline DIM, 3,3′-diindolylmethane] here?
**A.** 0%

**Q.** And the “Percent DIM Released from Particle” value ([5]; 15 minutes)?
**A.** 55.1%

**Q.** What about the “Percent DIM Released from Particle” value ([5]; 30 minutes) of the same compound?
**A.** 73.6%

**Q.** What about the “Percent DIM Released from Particle” value ([5]; 45 minutes) of the same compound?
**A.** 78.8%

**Q.** And the “Percent DIM Released from Particle” value ([5]; 60 minutes)?
**A.** 83.5%
